Experimental data: article PMC11882969 (Nature Communications, 2025)
Several values for one entry are separate records, joined by “and”; a condition that tells them apart may be missing. Equal entries are not always repeated.

Target: hCB1 (Homo sapiens, UniProt P21554)
Experiment: bioSensAll ebBRET signaling profiling, hCB1
Assay type: cell-based
Design: host or cells: HEK293SL cells, transient PEI transfection
Details: for Gi1 hCB1 response: Gi1 biosensor; for Gi1 hCB1 / GoB hCB1: single replicate values, FigS6a

hCB1, sequence (P21554 whole entry): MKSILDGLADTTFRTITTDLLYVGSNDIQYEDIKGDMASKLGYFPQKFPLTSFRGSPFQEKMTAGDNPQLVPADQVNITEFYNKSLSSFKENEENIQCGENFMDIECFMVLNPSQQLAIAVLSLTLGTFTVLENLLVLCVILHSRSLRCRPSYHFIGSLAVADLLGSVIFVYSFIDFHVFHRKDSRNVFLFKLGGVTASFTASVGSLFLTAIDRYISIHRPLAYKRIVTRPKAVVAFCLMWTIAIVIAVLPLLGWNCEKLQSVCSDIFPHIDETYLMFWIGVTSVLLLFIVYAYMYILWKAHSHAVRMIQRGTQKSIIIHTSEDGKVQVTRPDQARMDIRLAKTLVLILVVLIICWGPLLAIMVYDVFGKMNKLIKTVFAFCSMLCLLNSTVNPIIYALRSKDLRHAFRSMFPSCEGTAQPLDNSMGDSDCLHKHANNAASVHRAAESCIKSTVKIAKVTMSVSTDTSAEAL

Cc1cc(C(=O)N2CC3(CCC3)[C@@H]2[C@@H]2CCCO2)nn1-c1cccc(C(F)(F)F)c1 [‘3386]
Gi1 hCB1 response (Log [Compound] (M) -4.22186): -31.6589
Gi1 hCB1 response (Log [Compound] (M) -4.63927): -26.0187
Gi1 hCB1 response (Log [Compound] (M) -5.47381): -11.5379
Gi1 hCB1 response (Log [Compound] (M) -5.89285): -4.6
Gi1 hCB1 response (Log [Compound] (M) -6.31878): 6.86
Gi1 hCB1 response (Log [Compound] (M) -6.72585): -4.577
Gi1 hCB1 response (Log [Compound] (M) -7.14267): -3.682
Gi1 hCB1 response (Log [Compound] (M) -7.55284): 0.369
Gi1 hCB1 response (Log [Compound] (M) -8): -1.959
Gi1 hCB1 response (Log [Compound] (M) -8.22186): -1.847
Gi1 hCB1 response (Log [Compound] (M) -8.39794): 6.792
Gi1 hCB1 response (Log [Compound] (M) -8.68787): 5.83
Gi1 hCB1 response (Log [Compound] (M) -9.15521): -6.435
Gi1 hCB1 response (Log [Compound] (M) -9.61989): 5.561
Gi1 hCB1 response (Log [Compound] (M) -10.0969): -3.167
Gi1 hCB1 response (Log [Compound] (M) -10.5529): 5.808
Gi1 hCB1 response (Log [Compound] (M) -11.0177): 14.3798
Gi1 hCB1 response (Log [Compound] (M) -11.4949): 4.331
Gi1 hCB1 response (Log [Compound] (M) -11.9208): 0.6376
Gi1 hCB1 response (Log [Compound] (M) -12.3979): 3.01
Gi1 hCB1 response (Log [Compound] (M) -12.8861): 17.2222
Gi1 hCB1 response (Log [Compound] (M) -13, individual replicate values): 0.5257 and -2.921
Gi1 hCB1 (Log [Compound] (M) -4.22186): -5.415
GoB hCB1 (Log [Compound] (M) -4.22186): -7.725
Gi1 hCB1 (Log [Compound] (M) -4.63927): -6.833
GoB hCB1 (Log [Compound] (M) -4.63927): -8.211
Gi1 hCB1 (Log [Compound] (M) -5.05788): -4.3047
GoB hCB1 (Log [Compound] (M) -5.05788): -5.316
Gi1 hCB1 (Log [Compound] (M) -5.47381): -2.408
GoB hCB1 (Log [Compound] (M) -5.47381): -3.409
Gi1 hCB1 (Log [Compound] (M) -5.89285): -1.499
GoB hCB1 (Log [Compound] (M) -5.89285): -1.485
Gi1 hCB1 (Log [Compound] (M) -6.31878): 1.292
GoB hCB1 (Log [Compound] (M) -6.31878): 2.327
Gi1 hCB1 (Log [Compound] (M) -6.72585): 0.5361
GoB hCB1 (Log [Compound] (M) -6.72585): 1.033
Gi1 hCB1 (Log [Compound] (M) -7.14267): 0.4282
GoB hCB1 (Log [Compound] (M) -7.14267): 0.7269
Gi1 hCB1 (Log [Compound] (M) -7.55284): 0.9215
GoB hCB1 (Log [Compound] (M) -7.55284): 3.892
Gi1 hCB1 (Log [Compound] (M) -8): 0.7057
GoB hCB1 (Log [Compound] (M) -8): 1.158
Gi1 hCB1 (Log [Compound] (M) -8.22186): 1.7386
GoB hCB1 (Log [Compound] (M) -8.22186): -4.075
Gi1 hCB1 (Log [Compound] (M) -8.39794): -1.406
GoB hCB1 (Log [Compound] (M) -8.39794): 4.1437
Gi1 hCB1 (Log [Compound] (M) -8.68787): 1.2761
GoB hCB1 (Log [Compound] (M) -8.68787): -1.251
Gi1 hCB1 (Log [Compound] (M) -9.15521): 1.261
GoB hCB1 (Log [Compound] (M) -9.15521): -3.967
Gi1 hCB1 (Log [Compound] (M) -9.61989): 1.816
GoB hCB1 (Log [Compound] (M) -9.61989): -0.8377
Gi1 hCB1 (Log [Compound] (M) -10.0969): 0.3511
GoB hCB1 (Log [Compound] (M) -10.0969): 1.158
Gi1 hCB1 (Log [Compound] (M) -10.5529): 1.014
GoB hCB1 (Log [Compound] (M) -10.5529): 1.536
Gi1 hCB1 (Log [Compound] (M) -11.0177): 0.7982
GoB hCB1 (Log [Compound] (M) -11.0177): 0.4571
Gi1 hCB1 (Log [Compound] (M) -11.4949): 1.029
GoB hCB1 (Log [Compound] (M) -11.4949): 2.058
Gi1 hCB1 (Log [Compound] (M) -11.9208): -0.1422
GoB hCB1 (Log [Compound] (M) -11.9208): 1.68
Gi1 hCB1 (Log [Compound] (M) -12.3979): 0.5053
GoB hCB1 (Log [Compound] (M) -12.3979): 2.184
Gi1 hCB1 (Log [Compound] (M) -12.8861): -0.04972
GoB hCB1 (Log [Compound] (M) -12.8861): 1.176
Gi1 hCB1 (Log [Compound] (M) -13): 2.124 and 3.311
GoB hCB1 (Log [Compound] (M) -13): 2.399 and 2.327
